Data reported in the supplement of paper PMC11208160.

Test: recombinant UMI read abundance after kanamycin selection (control-corrected) (log10(CPM+1)); higher = more efficient recombination; extreme values may be limits of the assay; sequences stand for … in AGTGCAGAGAAAATCGGCCAGTTTTCTCTGCCTGCAGTCCGCATGCCGTGGGACCCCTTGGGTTCTAACCTGTTGCCTAGATTTATGCAGCGGACTGCCTTTCTCCCAAAGTGATAAACCGG…AGGTTGGTTTCACT; site = the 11-nt donor
Procedure, shortened: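 Values are reported as log10(CPM+1), obtained by converting sequencing counts to CPM, averaging replicates and scaling by control-derived factors. The counts came from recombinant UMIs amplified by PCR across the donor–target junction. These UMIs came from a pooled Escherichia coli screen of donor and donor-binding-loop pairs for the IS621 bridge recombinase, plated with IPTG (0.07 mM) plus kanamycin or left unselected, in two replicates each.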
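Further: IS621 bridge recombinase in Escherichia coli cells against a fixed T5 target plasmid.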

Row | Sequence | recombinant UMI read abundance (log10)
1 | TCCTAGCCATGGACCGGTTTTCCCGGTAATCCGTATTTGCC (site GCCTAGCCTGG) | 0.221
2 | TCCTAGCCATGGACCGGTTTTCCCGGTAATCCGTATTTGCC (site TCCTAGCCTGG) | 0
3 | TCGACTCCATGGACCGGTTTTCCCGGTAATCCGTATTTGCC (site TCGACTCCTGG) | 0
4 | TCGAGCGCATGGACCGGTTTTCCCGGTAATCCGTATTTGCT (site TCGAGCGCTAG) | 1.5
5 | TCGAGGACATGGACCGGTTTTCCCGGTAATCCGTATTTGGC (site TCGAGGACTGC) | 0
6 | TCGAGTCCATGGACCGGTTTTCCCGGTAATCCGTATTTGGC (site TCGAGTCCTGC) | 0
7 | TCGCAGCCATGGACCGGTTTTCCCGGTAATCCGTATTTGGA (site AAAGTCTCTCG) | 0
8 | TCGCATTCATGGACCGGTTTTCCCGGTAATCCGTATTTGTC (site TCGCATTCTGA) | 0
9 | TCGCCGCCATGGACCGGTTTTCCCGGTAATCCGTATTTGGG (site TCGCCGCCTCC) | 0.00807
10 | TCGCCGGCATGGACCGGTTTTCCCGGTAATCCGTATTTGGC (site TAGCCGGCTGC) | 0
11 | TCGCCGGCATGGACCGGTTTTCCCGGTAATCCGTATTTGGC (site TCGCCGGCTGC) | 0
12 | TCGCCGGCATGGACCGGTTTTCCCGGTAATCCGTATTTGGC (site TGGCCGGCTGC) | 0
13 | TCGCCGGCATGGACCGGTTTTCCCGGTAATCCGTATTTGGC (site TTGCCGGCTGC) | 0
14 | TCGCTAGCATGGACCGGTTTTCCCGGTAATCCGTATTTGCC (site TCGCTAGCTGG) | 0
15 | TCGCTGTCATGGACCGGTTTTCCCGGTAATCCGTATTTGTG (site TCGCTGTCTCA) | 0.936
16 | TCGGAGACATGGACCGGTTTTCCCGGTAATCCGTATTTGCG (site TCAGAGACTCG) | 1.72
17 | TCGGAGACATGGACCGGTTTTCCCGGTAATCCGTATTTGCG (site TCCGAGACTCG) | 0.44
18 | TCGGAGACATGGACCGGTTTTCCCGGTAATCCGTATTTGCG (site TCGGAGACTCG) | 2.41
19 | TCGGAGACATGGACCGGTTTTCCCGGTAATCCGTATTTGCG (site TCTGAGACTCG) | 0.976
20 | TCGGCGGCATGGACCGGTTTTCCCGGTAATCCGTATTTGAG (site TCGGCGGCTCT) | 0.464
21 | TCGGGTACATGGACCGGTTTTCCCGGTAATCCGTATTTGAC (site TCGGGTACTGT) | 0
22 | TCGTATTCATGGACCGGTTTTCCCGGTAATCCGTATTTGTT (site TCGTATTCTAA) | 1.24
23 | TCGTCTACATGGACCGGTTTTCCCGGTAATCCGTATTTGAT (site TCGTCTACTAT) | 0.00771

Row | Sequence | recombinant UMI read abundance (log10)
24 | TCGTGATCATGGACCGGTTTTCCCGGTAATCCGTATTTGGC (site TCGTGATCTGC) | 0
25 | TCGTTAACATGGACCGGTTTTCCCGGTAATCCGTATTTGTT (site TCGTTAACTAA) | 0.00894
26 | TCGTTCACATGGACCGGTTTTCCCGGTAATCCGTATTTGGA (site TCGTTCACTTC) | 0.0102
27 | TCGTTCTCATGGACCGGTTTTCCCGGTAATCCGTATTTGGG (site TCGTTCTCTCC) | 0.00264
28 | TCTAAATCATGGACCGGTTTTCCCGGTAATCCGTATTTGTT (site TCTAAATCTAA) | 0
29 | TCTAAGACATGGACCGGTTTTCCCGGTAATCCGTATTTGTG (site TCTAAGACTCA) | 0.00606
30 | TCTAAGGCATGGACCGGTTTTCCCGGTAATCCGTATTTGGT (site TCTAAGGCTAC) | 0.43
31 | TCTACACCATGGACCGGTTTTCCCGGTAATCCGTATTTGGT (site TCTACACCTAC) | 0.00817
32 | TCTGAAACATGGACCGGTTTTCCCGGTAATCCGTATTTGTG (site TCTGAAACTCA) | 0.00806
33 | TCTGAGACATGGACCGGTTTTCCCGGTAATCCGTATTTGCC (site TCTGAGACTGG) | 0.0914
34 | TCTGAGACATGGACCGGTTTTCCCGGTAATCCGTATTTGCG (site TCAGAGACTCG) | 0
35 | TCTGAGACATGGACCGGTTTTCCCGGTAATCCGTATTTGCG (site TCCGAGACTCG) | 0.022
36 | TCTGAGACATGGACCGGTTTTCCCGGTAATCCGTATTTGCG (site TCGGAGACTCG) | 0.285
37 | TCTGAGACATGGACCGGTTTTCCCGGTAATCCGTATTTGCG (site TCTGAGACTCG) | 0.476
38 | TCTGCAGCATGGACCGGTTTTCCCGGTAATCCGTATTTGTA (site TCTGCAGCTTA) | 0
39 | TCTGCCCCATGGACCGGTTTTCCCGGTAATCCGTATTTGGG (site TCTGCCCCTCC) | 0.00716
40 | TCTGCCGCATGGACCGGTTTTCCCGGTAATCCGTATTTGAG (site TCTGCCGCTCT) | 0.0275
41 | TCTGGATCATGGACCGGTTTTCCCGGTAATCCGTATTTGCT (site TCTGGATCTAG) | 0
42 | TCTGGGTCATGGACCGGTTTTCCCGGTAATCCGTATTTGTT (site TCTGGGTCTAA) | 0.167
43 | TCTGGTCCATGGACCGGTTTTCCCGGTAATCCGTATTTGAG (site TCTGGTCCTCT) | 0.00736
44 | TCTGTCGCATGGACCGGTTTTCCCGGTAATCCGTATTTGGC (site TCTGTCGCTGC) | 0.00952
45 | TCTGTGGCATGGACCGGTTTTCCCGGTAATCCGTATTTGAC (site TCTGTGGCTGT) | 0
46 | TCTTCGACATGGACCGGTTTTCCCGGTAATCCGTATTTGAG (site TCTTCGACTCT) | 0.0148

Row | Sequence | recombinant UMI read abundance (log10)
47 | TCTTCTTCATGGACCGGTTTTCCCGGTAATCCGTATTTGAA (site TCTTCTTCTTT) | 0.00225
48 | TGAAAGGCATGGACCGGTTTTCCCGGTAATCCGTATTTGCT (site AGAAAGGCTAG) | 0.855
49 | TGAAAGGCATGGACCGGTTTTCCCGGTAATCCGTATTTGCT (site CGAAAGGCTAG) | 0.708
50 | TGAAAGGCATGGACCGGTTTTCCCGGTAATCCGTATTTGCT (site GGAAAGGCTAG) | 0
51 | TGAAAGGCATGGACCGGTTTTCCCGGTAATCCGTATTTGCT (site TGAAAGGCTAG) | 2.34
52 | TGAAGAACATGGACCGGTTTTCCCGGTAATCCGTATTTGGC (site TGAAGAACTGC) | 2.29
53 | TGAAGTCCATGGACCGGTTTTCCCGGTAATCCGTATTTGTA (site TAAAGTCCTTA) | 0.00928
54 | TGAAGTCCATGGACCGGTTTTCCCGGTAATCCGTATTTGTA (site TCAAGTCCTTA) | 1.44
55 | TGAAGTCCATGGACCGGTTTTCCCGGTAATCCGTATTTGTA (site TGAAGTCCTTA) | 0.591
56 | TGAAGTCCATGGACCGGTTTTCCCGGTAATCCGTATTTGTA (site TTAAGTCCTTA) | 0.888
57 | TGAATACCATGGACCGGTTTTCCCGGTAATCCGTATTTGTC (site TGAATACCTGA) | 0
58 | TGAATTTCATGGACCGGTTTTCCCGGTAATCCGTATTTGAG (site TGAATTTCTCT) | 0.492
59 | TGACCATCATGGACCGGTTTTCCCGGTAATCCGTATTTGCT (site CGATCATCTAG) | 0
60 | TGACCATCATGGACCGGTTTTCCCGGTAATCCGTATTTGCT (site TGACCATCTAG) | 2.24
61 | TGACCGGCATGGACCGGTTTTCCCGGTAATCCGTATTTGGG (site TGACCGGCTCC) | 0.00617
62 | TGACGTACATGGACCGGTTTTCCCGGTAATCCGTATTTGTC (site TGACGTACTGA) | 0.893
63 | TGAGAACCATGGACCGGTTTTCCCGGTAATCCGTATTTGAT (site GACATTGCTCA) | 0.0061
64 | TGAGCCTCATGGACCGGTTTTCCCGGTAATCCGTATTTGAC (site TGAGCCTCTGT) | 2.84
65 | TGAGCTGCATGGACCGGTTTTCCCGGTAATCCGTATTTGTG (site TAAGCTGCTCA) | 0.038
66 | TGAGCTGCATGGACCGGTTTTCCCGGTAATCCGTATTTGTG (site TCAGCTGCTCA) | 0
67 | TGAGCTGCATGGACCGGTTTTCCCGGTAATCCGTATTTGTG (site TGAGCTGCTCA) | 0.639
68 | TGAGCTGCATGGACCGGTTTTCCCGGTAATCCGTATTTGTG (site TTAGCTGCTCA) | 0.0107
